From PubChem BioAssay (NCI)
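48-hour exposure; five concentrations; linearly interpolated endpoints. At the TGI there is no net growth.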

Assays:
Experiment in all cases: NCI anticancer screen, dose series, 48 h
DMS 114 small cell lung = system: DMS 114 small cell lung
KM20L2 colon = system: KM20L2 colon
HCC-2998 colon = system: HCC-2998 colon
K-562 leukemia = system: K-562 leukemia
EKVX NSCLC = system: EKVX NSCLC
UACC-62 melanoma = system: UACC-62 melanoma
TK-10 renal = system: TK-10 renal
HL-60(TB) leukemia = system: HL-60(TB) leukemia
SK-MEL-5 melanoma = system: SK-MEL-5 melanoma
A498 renal = system: A498 renal
HOP-62 NSCLC = system: HOP-62 NSCLC
M14 melanoma = system: M14 melanoma
SNB-75 CNS = system: SNB-75 CNS
UACC-257 melanoma = system: UACC-257 melanoma
UO-31 renal = system: UO-31 renal
RXF-631 renal = system: RXF-631 renal
NCI-H23 lung = system: NCI-H23 lung
SK-OV-3 ovarian = system: SK-OV-3 ovarian
LXFL 529 NSCLC = system: LXFL 529 NSCLC
IGROV1 ovarian = system: IGROV1 ovarian
NCI-H460 lung = system: NCI-H460 lung
SNB-19 CNS = system: SNB-19 CNS
XF 498 CNS = system: XF 498 CNS
SK-MEL-28 melanoma = system: SK-MEL-28 melanoma
CAKI-1 renal = system: CAKI-1 renal
NCI-H522 lung = system: NCI-H522 lung
A549 NSCLC = system: A549 NSCLC
OVCAR-4 ovarian = system: OVCAR-4 ovarian
SW-620 colon = system: SW-620 colon
DMS 273 small cell lung = system: DMS 273 small cell lung
OVCAR-5 ovarian = system: OVCAR-5 ovarian
U251 CNS = system: U251 CNS
M19-MEL melanoma = system: M19-MEL melanoma
ACHN renal = system: ACHN renal
786-0 renal = system: 786-0 renal
NCI-H226 lung = system: NCI-H226 lung
MALME-3M melanoma = system: MALME-3M melanoma
HOP-18 NSCLC = system: HOP-18 NSCLC
DLD-1 colon = system: DLD-1 colon
HCT-116 colon = system: HCT-116 colon
SF-268 CNS = system: SF-268 CNS
LOX IMVI melanoma = system: LOX IMVI melanoma
RPMI-8226 leukemia = system: RPMI-8226 leukemia
CCRF-CEM leukemia = system: CCRF-CEM leukemia
HT29 colon = system: HT29 colon
SK-MEL-2 melanoma = system: SK-MEL-2 melanoma
SN12C renal = system: SN12C renal
MOLT-4 leukemia = system: MOLT-4 leukemia
OVCAR-3 ovarian = system: OVCAR-3 ovarian
SF-295 CNS = system: SF-295 CNS
HCT-15 colon = system: HCT-15 colon
SNB-78 CNS = system: SNB-78 CNS
KM12 colon = system: KM12 colon
SF-539 CNS = system: SF-539 CNS
OVCAR-8 ovarian = system: OVCAR-8 ovarian
SR leukemia = system: SR leukemia
RXF 393 renal = system: RXF 393 renal
COLO 205 colon = system: COLO 205 colon

Measured: TGI

COC(=O)/C(=N\NC(N)=S)C(C(=O)OC)C(=O)C(=O)Nc1ccc(C)cc1 (stereo not drawn)
> 100 µM: all assays above
